Where “and” joins values, the source holds several entries; their conditions need not be identical. Equal values may be shown once.
Settings: for mass density: 101.33 kPa, Liquid, Vibrating tube method; for surface tension liquid-gas: Pendant drop shape

CCCCCn1cc[n+](C)c1.O=S(=O)([N-]S(=O)(=O)C(F)(F)F)C(F)(F)F
Settings | mass density [kg/m3] | surface tension liquid-gas
293.15 K | 1408.1 | –
303.15 K | 1398.7 | –
312.7 K | – | 29.5 mN/m
313.15 K | 1389.4 | –
313.2 K | – | 30.5 mN/m
323.15 K | 1380.3 | –
333.15 K | 1371.2 | –
333.2 K | – | 28.3 mN/m
343.15 K | 1362.1 | –
353.15 K | 1353.1 | –
353.4 K | – | 27.3 mN/m
353.7 K | – | 27.2 mN/m
363.15 K | 1344 | –
373.15 K | 1335 | –
373.5 K | – | 26.3 mN/m
373.7 K | – | 26.6 mN/m
383.15 K | 1325.9 | –
393.15 K | 1316.8 | –
393.7 K | – | 24.7 mN/m and 25.6 mN/m
403.15 K | 1307.6 | –
413.15 K | 1298.4 | –
413.6 K | – | 24.6 mN/m
413.8 K | – | 23.5 mN/m
423.15 K | 1288.6 | –
433.15 K | 1279.7 | –
433.5 K | – | 22.6 mN/m
433.7 K | – | 23.7 mN/m
443.15 K | 1270.3 | –
453.15 K | 1260.8 | –
453.5 K | – | 21.7 mN/m
453.6 K | – | 22.8 mN/m
463.15 K | 1251.1 | –
473.15 K | 1241.3 | –
473.3 K | – | 21.1 mN/m
473.6 K | – | 21.7 mN/m
493 K | – | 21.6 mN/m
493.2 K | – | 20.8 mN/m
512.9 K | – | 20.1 mN/m

CCCC[n+]1ccn(C)c1.O=S(=O)([N-]S(=O)(=O)C(F)(F)F)C(F)(F)F
Settings | mass density [kg/m3] | surface tension liquid-gas
293.15 K | 1442.3 | –
303.15 K | 1432.8 | –
312.6 K | – | 31.9 mN/m
313.15 K | 1423.4 | –
313.3 K | – | 31.9 mN/m and 30.4 mN/m
323.15 K | 1414.1 | –
332.6 K | – | 30.8 mN/m
333.1 K | – | 31.2 mN/m
333.15 K | 1404.8 | –
333.5 K | – | 29.7 mN/m
343.15 K | 1395.6 | –
352.6 K | – | 30.2 mN/m
353.15 K | 1386.3 | –
353.6 K | – | 28.8 mN/m
353.7 K | – | 30.1 mN/m
363.15 K | 1377.1 | –
372.7 K | – | 27.9 mN/m
373.15 K | 1367.9 | –
373.6 K | – | 28.1 mN/m
374.1 K | – | 29.2 mN/m
383.15 K | 1358.7 | –
392.7 K | – | 26.2 mN/m
393.15 K | 1349.4 | –
393.6 K | – | 25.9 mN/m
394.2 K | – | 28.1 mN/m
403.15 K | 1340.1 | –
412.5 K | – | 26 mN/m
413.15 K | 1330.7 | –
413.6 K | – | 25.6 mN/m
414.4 K | – | 27.2 mN/m
423.15 K | 1321.2 | –
432.5 K | – | 25.6 mN/m
432.6 K | – | 24.9 mN/m
433.15 K | 1311.6 | –
434.5 K | – | 26.6 mN/m
443.15 K | 1301.9 | –
452.2 K | – | 24.4 mN/m and 24.2 mN/m
453.15 K | 1292.1 | –
455 K | – | 25.8 mN/m
463.15 K | 1282.2 | –
472 K | – | 23.3 mN/m
473 K | – | 23.7 mN/m
473.15 K | 1272 | –
475.2 K | – | 24.6 mN/m

CCCCCCCCCCCCCCn1cc[n+](C)c1.O=S(=O)([N-]S(=O)(=O)C(F)(F)F)C(F)(F)F
Settings | mass density [kg/m3] | surface tension liquid-gas [mN/m]
312.8 K | – | 26.3
323.15 K | 1193.1 | –
323.3 K | – | 24.9
333.15 K | 1184.8 | –
333.2 K | – | 23.5
333.9 K | – | 24.1
343.15 K | 1176.6 | –
353.15 K | 1168.5 | –
353.3 K | – | 23.5
354 K | – | 23.7
363.15 K | 1160.5 | –
373.15 K | 1152.4 | –
373.5 K | – | 22.1
374 K | – | 22.6
383.15 K | 1144.4 | –
393.15 K | 1136.4 | –
393.6 K | – | 21.5
394.7 K | – | 21.3
403.15 K | 1128.4 | –
413.15 K | 1120.4 | –
413.5 K | – | 20.9
414.9 K | – | 19.7
423.15 K | 1112.4 | –
433.15 K | 1104.3 | –
433.6 K | – | 18.7
434.8 K | – | 19.6
443.15 K | 1096.2 | –
453.15 K | 1088 | –
453.6 K | – | 17.5
454.5 K | – | 17.9
463.15 K | 1079.7 | –
473.15 K | 1071.4 | –
473.5 K | – | 16.6
474.5 K | – | 17
493.4 K | – | 15.9
512.9 K | – | 15.5

CCCCCC[n+]1ccn(C)c1.O=S(=O)([N-]S(=O)(=O)C(F)(F)F)C(F)(F)F
Settings | mass density [kg/m3] | surface tension liquid-gas [mN/m]
293.15 K | 1378.1 | –
303.15 K | 1368.9 | –
313 K | – | 29.4
313.15 K | 1359.8 | –
323.15 K | 1350.8 | –
333.15 K | 1341.8 | –
333.2 K | – | 28.1
343.15 K | 1332.9 | –
353.15 K | 1324 | –
353.4 K | – | 27.2
363.15 K | 1315.2 | –
373.15 K | 1306.3 | –
373.4 K | – | 26.5
383.15 K | 1297.4 | –
393.15 K | 1288.5 | –
393.5 K | – | 25.6
403.15 K | 1279.6 | –
413.15 K | 1270.6 | –
413.3 K | – | 24.8
423.15 K | 1261.6 | –
433.15 K | 1252.4 | –
433.6 K | – | 24.2
443.15 K | 1243.2 | –
453.15 K | 1233.9 | –
453.4 K | – | 23.6
463.15 K | 1224.5 | –
473.15 K | 1214.9 | –
473.4 K | – | 21.8
493.2 K | – | 20.7
512.7 K | – | 19.3
532.4 K | – | 18.5

CCn1cc[n+](C)c1.O=S(=O)([N-]S(=O)(=O)C(F)(F)F)C(F)(F)F
Settings | mass density [kg/m3] | surface tension liquid-gas
293.15 K | 1525 | –
303.15 K | 1515.1 | –
313 K | – | 35.2 mN/m
313.15 K | 1505.3 | –
313.2 K | – | 33.8 mN/m and 34.7 mN/m
323.15 K | 1495.5 | –
332.7 K | – | 34.2 mN/m
333.15 K | 1485.8 | –
333.3 K | – | 33.6 mN/m
343.15 K | 1476.1 | –
352.4 K | – | 33.4 mN/m
353.15 K | 1466.4 | –
353.4 K | – | 33.4 mN/m
363.15 K | 1456.7 | –
372.7 K | – | 32.5 mN/m
373.15 K | 1447 | –
373.2 K | – | 31.5 mN/m
383.15 K | 1437.2 | –
392.9 K | – | 31.4 mN/m
393.15 K | 1427.4 | –
393.2 K | – | 31.1 mN/m
403.15 K | 1417.5 | –
412.8 K | – | 30.5 mN/m
413.1 K | – | 30.1 mN/m
413.15 K | 1407.5 | –
423.15 K | 1397.5 | –
432.5 K | – | 29.6 mN/m
433.15 K | 1387.3 | –
443.15 K | 1377 | –
452.7 K | – | 27.3 mN/m
453 K | – | 28.7 mN/m
453.15 K | 1366.6 | –
463.15 K | 1356 | –
472.5 K | – | 25.7 mN/m
472.7 K | – | 26.4 mN/m
473.15 K | 1345.2 | –
512.6 K | – | 24.6 mN/m
532.2 K | – | 23.7 mN/m
